According to patent US8318641B2, “Systems and methods for the detection of biomarkers” (priority 2010, dated 2012):

Legend:
peroxidase = test: Peroxidase assay in saliva (Amplex Red); assay type: biochemical; settings: test compound prepared at 500 ppm, 30 minutes, FIGS. 26-29
Experimental: To determine the effect of various GRAS compounds as inhibitors of peroxidase activity, a standard assay using Amplex® Red (Life Technologies), which releases a fluorescent oxidation product.
The test compounds, such as GRAS materials or cocktails of same, were prepared at a concentration of 500 ppm in distilled water. For the assay, 50 μl samples of test compounds were mixed with 20-30 μl of saliva (either “pooled” or “unpooled”) prior to the addition of Amplex® Red. […] Reactions were allowed to run for 30 minutes during these assays.

Lysozyme = target: T1, Lysozyme (Homo sapiens, UniProt P61626); test: Lysozyme inhibition saliva screening (fluorescein-labeled Micrococcus lysodeikticus); assay type: biochemical; settings: 100% saliva samples (data not shown)
T1 sequence (P61626 19-148): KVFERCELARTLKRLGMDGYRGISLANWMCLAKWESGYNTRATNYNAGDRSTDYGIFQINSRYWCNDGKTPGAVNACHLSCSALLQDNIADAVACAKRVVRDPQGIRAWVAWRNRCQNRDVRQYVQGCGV
From the text: Further details of these five compounds may also be seen in Table 5.

α-amylase = target: T2, α-amylase (Homo sapiens, UniProt P0DUB6); test: α-Amylase inhibition saliva screening (2-chloro-p-nitrophenol-maltotriose substrate, absorbance 405 nm); assay type: biochemical
T2 sequence (P0DUB6 16-511): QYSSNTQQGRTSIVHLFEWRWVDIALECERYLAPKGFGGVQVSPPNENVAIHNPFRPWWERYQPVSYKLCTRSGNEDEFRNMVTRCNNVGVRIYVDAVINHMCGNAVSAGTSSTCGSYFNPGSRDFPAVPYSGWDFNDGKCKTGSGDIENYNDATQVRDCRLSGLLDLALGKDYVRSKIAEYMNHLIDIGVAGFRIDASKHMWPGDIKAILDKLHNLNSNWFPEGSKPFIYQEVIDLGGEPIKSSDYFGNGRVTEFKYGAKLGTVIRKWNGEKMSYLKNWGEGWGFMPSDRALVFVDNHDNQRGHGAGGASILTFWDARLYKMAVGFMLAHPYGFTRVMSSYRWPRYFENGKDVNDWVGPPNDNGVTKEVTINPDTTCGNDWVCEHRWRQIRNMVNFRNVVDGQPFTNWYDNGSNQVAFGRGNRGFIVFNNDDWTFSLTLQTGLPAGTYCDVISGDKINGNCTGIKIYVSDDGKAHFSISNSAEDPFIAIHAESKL
From the text: Further details of these five compounds may also be seen in Table 4.

protease = settings: cited from earlier work

Molecule: Cn1c(=O)c2c(ncn2C)n(C)c1=O [CDI #33, Caffeine]
- peroxidase inhibition (peroxidase): significant peroxidase inhibition capabilities

Molecule: COc1ccc(O)c(C(C)(C)C)c1 [CDI-039, 3-tert--butyl-hydroxyanisole]
- peroxidase inhibition (peroxidase): significant peroxidase inhibition capabilities

Molecule: CC(=O)O [CDI-047, Acetic acid]
- Lysozyme inhibition (Lysozyme): shown to inhibit Lysozyme

Molecule: Aluminum potassium sulfate dodecahydrate [CDI-42]
- Ave (absorbance at 405 nm) (α-amylase; Time 0 min): 0.92
- peroxidase inhibition (peroxidase): significant peroxidase inhibition capabilities

Molecule: Aluminum sulfate hydrate [CDI-34]
- Ave (absorbance at 405 nm) (α-amylase; Time 0 min): 0.40
- Ave (absorbance at 405 nm) (α-amylase; Time 5 min): 0.50
- Ave (absorbance at 405 nm) (α-amylase; Time 15 min): 0.56

B1: Soybeans: primary soybean protease inhibitor, 20.7-22.3 kDa (protein, UniProt P01070 25-205, looked up)
Trypsin inhibitor A: DFVLDNEGNPLENGGTYYILSDITAFGGIRAAPTGNERCPLTVVQSRNELDKGIGTIISSPYRIRFIAEGHPLSLKFDSFAVIMLCVGIPTEWSVVEDLPEGPAVKIGENKDAMDGWFRLERVSDDEFNNYKLVFCPQQAEDDKCGDIGISIDHDDGTRRLVVSKNKPLVVQFQKLDKESL
- Inhibitory power (protease): 1.2 times times weight
